Patent publication US6545007B2, “Methods for inhibiting the transmission of HIV using topically applied substituted 6-benzyl-4-oxopyrimidines” (Idenix (Cayman) Limited, priority 2000, dated 2003)
Read-outs that look alike come from different tables or passages of the source.

Key:
HIV-1 (IIIB strain) = format: cell-based; conditions: for EC50: anti-HIV-1 activity; for SI: selectivity index (CC50/EC50)
Procedure: Compounds. Compounds were solubilized in DMSO at 200 mM and then diluted into culture medium.
(§1) Cells and viruses. MT-4, C8166,H9/IIIB and CEM cells were grown at 37° C. in a 5% CO2 atmosphere in RPMI 1640 medium, supplemented with 10% fetal calf serum (FCS), 100 IU/mL penicillin and 100 μg/mL streptomycin. Cell cultures were checked periodically for the absence of mycoplasma contamination with a MycoTect Kit (Gibco). Human immunodeficiency virus type-I (HIV-1, IIIB strain) was obtained from supernatants of persistently infected H9/IIIB cells.
HIV Titration. Titration of HIV was performed in C8166 cells by the standard limiting dilution method (dilution 1:2, four replica wells per dilution) in 96-well plates. The infectious virus titre was determined by light microscope scoring of cytopathicity after 4 days of incubation and the virus titres were expressed as CCID50/mL.
(§2) Anti-HIV Assays. Activity of the compounds against HIV-1 and HIV-2 multiplication in acutely infected cells was based on the inhibition of virus-induced cytopathicity in MT-4 and C8166 cells, respectively. Briefly, 50 μL of culture medium containing 1×10^4 cells were added to each well of flat-bottom microtiter trays containing 50 μl of culture medium with or without various concentrations of the test compounds. Then 20 μL of an HIV suspension containing 100 CCID50 were added. After a 4-day incubation at 37° C., the number of viable cells was determined by the 3-(4,5-dimethylthiazol-[…])-2,5-diphenyltetrazolium bromide (MTT) method. Cytotoxicity of the compounds was evaluated in parallel with their antiviral activity. It was based on the viability of mock-infected cells, as monitored by the MTT method.

mock-infected MT-4 cells = experiment: Cytotoxicity: viability of mock-infected cells by the MTT method; format: cell-based, human
Procedure: as §1, §2

[1] = acutely infected MT-4 cells, MTT

SMILES | EC50 (HIV-1 (IIIB strain); HIV-1-infected MT-4 cells) [µM] | SI (HIV-1 (IIIB strain)) | CC50 (mock-infected MT-4 cells) [µM] | EC50 (HIV-1 (IIIB strain); [1]) [µM] | CC50 (mock-infected MT-4 cells; MTT) [µM]
CCC(c1cc(=O)[nH]c(SC(C)C)n1)c1cccc2ccccc12 (centres unmarked) [MC 969] | 1.5 | 33.3 | 50 | – | –
CCC(C)Sc1nc(Cc2ccccc2C)cc(=O)[nH]1 (centres unmarked) [MC 806] | 1.8 | >111 | > 200 | – | –
CCCCSc1nc(Cc2c(Cl)cccc2Cl)cc(=O)[nH]1 [MC 886] | 0.44 | >454 | > 200 | – | –
CSc1nc(Cc2c(Cl)cccc2Cl)c(C)c(=O)[nH]1 [MC 912] | 3.2 | >62 | > 200 | – | –
CCC(C)Sc1nc(Cc2cccc(OC)c2)cc(=O)[nH]1 (centres unmarked) [MC 957] | 1.2 | >166 | > 200 | – | –
Cc1c(Cc2c(F)cccc2F)nc(SC(C)C)[nH]c1=O [MC 881] | 0.05 | >4,000 | > 200 | – | –
CCC(c1cc(=O)[nH]c(SC2CCCC2)n1)c1c(Cl)cccc1Cl (centres unmarked) [MC 1002] | 1 | 23.4 | 23.4 | – | –
O=c1cc(Cc2ccccc2)nc(SCOCc2ccccc2)[nH]1 [MC 843] | 45 | >4 | > 200 | – | –
CCC(c1cc(=O)[nH]c(SC(C)C)n1)c1c(Cl)cccc1Cl (centres unmarked) [MC 1000] | 0.4 | >500 | > 200 | – | –
CCC(C)Sc1nc(Cc2ccccc2C)c(C)c(=O)[nH]1 (centres unmarked) [MC 844] | 1.7 | >118 | > 200 | – | –
CCC(C)Sc1nc(Cc2ccccc2F)c(C)c(=O)[nH]1 (centres unmarked) [MC 913] | 0.41 | 341 | 140 | – | –
Cc1c(Cc2c(Cl)cccc2Cl)nc(SC2CCCC2)[nH]c1=O [MC 915] | 1.8 | >111 | > 200 | – | –
CCC(C)Sc1nc(Cc2ccc(F)cc2)cc(=O)[nH]1 (centres unmarked) [MC 889] | 8.7 | 23 | > 200 | – | –
CCC(C)Sc1nc(Cc2ccc(OC)cc2)cc(=O)[nH]1 (centres unmarked) [MC 964] | 14 | 10.5 | 147 | – | –
CCC(C)Sc1nc(Cc2ccc(F)cc2)c(C)c(=O)[nH]1 (centres unmarked) [MC 919] | 11 | 9.5 | 105 | – | –
CCC(C)Sc1nc(Cc2ccccc2F)cc(=O)[nH]1 (centres unmarked) [MC 880] | 0.26 | 769 | 200 | – | –
Cc1c(Cc2c(F)cccc2F)nc(SC2CCCC2)[nH]c1=O [MC 922] | 0.08 | >2,500 | > 200 | – | –
CCc1c(Cc2c(F)cccc2F)nc(SC(C)C)[nH]c1=O [MC 1037] | 0.2 | 326 | 65 | – | –
CC(c1cc(=O)[nH]c(NC2CCCC2)n1)c1c(F)cccc1F (centres unmarked) [MC 1048] | 0.03 | 2,500 | 75 | – | –
Cc1c(Cc2c(F)cccc2F)nc(N2CCN(C)CC2)[nH]c1=O [MC 1203] | – | – | – | 0.36 | > 200
CCC(C)Sc1nc(Cc2ccc(C(F)(F)F)cc2)cc(=O)[nH]1 (centres unmarked) [MC 959] | 25 | 8 | 200 | – | –
Cc1c(Cc2c(F)cccc2F)nc(SC2CCCCC2)[nH]c1=O [MC 923] | 0.09 | >2,222 | > 200 | – | –
Cc1c(C(C)c2c(F)cccc2F)nc(NC2CCCC2)[nH]c1=O (centres unmarked) [MC1129, 2-Cyclopentylamino-6-{1-(2,6-difluorophenyl)ethyl}-3,4-dihydro-5-methylpyrimidin-4-(3H)-one] | 0.02 | 4,500 | 90 | – | –
CCC(C)Sc1nc(Cc2cccc(Cl)c2)c(C)c(=O)[nH]1 (centres unmarked) [MC 910] | 0.96 | >208 | > 200 | – | –

SMILES | EC50 (HIV-1 (IIIB strain); HIV-1-infected MT-4 cells) [µM] | SI (HIV-1 (IIIB strain)) | CC50 (mock-infected MT-4 cells) [µM] | EC50 (HIV-1 (IIIB strain); [1]) [µM] | CC50 (mock-infected MT-4 cells; MTT) [µM]
CCCCc1c(Cc2ccccc2)nc(SC(C)CC)[nH]c1=O (centres unmarked) [MC 834] | > 200 | – | > 200 | – | –
O=c1cc(Cc2c(F)cccc2F)nc(N2CCCCC2)[nH]1 [MC 1194] | – | – | – | 0.02 | > 200
CCCCSc1nc(C(C)c2c(F)cccc2F)cc(=O)[nH]1 (centres unmarked) [MC 1045] | 0.07 | 2,857 | > 200 | – | –
CCCN(CCC)c1nc(Cc2c(F)cccc2F)cc(=O)[nH]1 [MC 1204] | – | – | – | 3.8 | > 200
CCCCSc1nc(Cc2c(F)cccc2F)c(C)c(=O)[nH]1 [MC 905] | 0.08 | >2,500 | > 200 | – | –
CC(C)Sc1nc(Cc2c(Cl)cccc2Cl)cc(=O)[nH]1 [MC 878] | 1.9 | >105 | > 200 | – | –
O=c1cc(Cc2c(F)cccc2F)nc(NC2CCCCC2)[nH]1 [MC 1049] | 0.14 | 471 | 66 | – | –
Cc1c(Cc2c(Cl)cccc2Cl)nc(SC2CCCCC2)[nH]c1=O [MC 917] | 22 | >9 | > 200 | – | –
CC(C)Sc1nc(C(C)c2cccc3ccccc23)cc(=O)[nH]1 (centres unmarked) [MC 971] | 1.1 | 108 | 119 | – | –
COCCNc1nc(Cc2c(F)cccc2F)cc(=O)[nH]1 [MC 1043] | 0.8 | >250 | > 200 | – | –
CCC(c1ccccc1)c1cc(=O)[nH]c(SC2CCCC2)n1 (centres unmarked) [MC 900] | 1 | >200 | > 200 | – | –
CCC(c1cc(=O)[nH]c(SC2CCCCC2)n1)c1cccc2ccccc12 (centres unmarked) [MC 975] | 0.18 | 94 | 16.9 | – | –
CCC(C)Sc1nc(Cc2ccc([N+](=O)[O-])cc2)c(C)c(=O)[nH]1 (centres unmarked) [MC 924] | 2 | >100 | > 200 | – | –
CCC(C)Sc1nc(Cc2ccccc2OC)cc(=O)[nH]1 (centres unmarked) [MC 952] | 1.96 | >208 | > 200 | – | –
CC(C)Sc1nc(C(C)c2ccccc2)cc(=O)[nH]1 (centres unmarked) [MC 890] | 0.9 | >222 | > 200 | – | –
O=c1cc(Cc2c(F)cccc2F)nc(OC2CCCC2)[nH]1 [MC 1103] | 20 | >10 | > 200 | – | –
CCC(C)Sc1nc(Cc2ccc(C)cc2)cc(=O)[nH]1 (centres unmarked) [MC 809] | 0.6 | 333.3 | 200 | – | –
CC(c1ccccc1)c1cc(=O)[nH]c(SC2CCCC2)n1 (centres unmarked) [MC 892] | 0.6 | 333 | 159 | – | –
CC(c1ccccc1)c1cc(=O)[nH]c(SC2CCCCC2)n1 (centres unmarked) [MC 898] | 0.6 | 248 | 149 | – | –
CCC(c1cc(=O)[nH]c(SC2CCCC2)n1)c1c(F)cccc1F (centres unmarked) [MC 1006] | 0.15 | 1,333 | 200 | – | –
CC(c1cc(=O)[nH]c(SC2CCCCC2)n1)c1c(F)cccc1F (centres unmarked) [MC 1013] | 0.16 | >1,250 | > 200 | – | –
Cc1c(Cc2ccccc2)nc(OC2CC(C)CCC2C)[nH]c1=O (centres unmarked) [MC 531] | 3.5 | 39 | 138 | – | –
Cc1c(Cc2c(Cl)cccc2Cl)nc(SCC(C)C)[nH]c1=O [MC 916] | 1.2 | >166 | > 200 | – | –
